Measurements: US8895585B2, “Nicotinamide derivative or salt thereof” (FUJIFILM Corporation, priority 2010, dated 2014)

Legend:
[1] = target: T1, glutathione S-transferase (GST)-fused full-length human Syk protein (Homo sapiens, UniProt P43405); test: Syk enzyme assay; type: biochemical; details: Syk enzyme assay, Test Example 1; read-out: IC50 of Syk-inhibitory activity
T1 construct: (GST)-fused full-length human Syk protein; GST (glutathione S-transferase); purchased Carna Biosciences
Method in brief: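 GST-tagged full-length human Syk (baculovirus) preincubated with compound 15 min at room temperature (pH 7.0, 10 mM MgCl2), then reacted 40 min with 0.4 μM biotinylated peptide substrate and 27 μM ATP (final). Phosphorylation read by HTRF (615/665 nm) after EDTA stop; IC50 reported.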

[2] = tested on: THP-1 cells; test: TNFα generation assay; type: cell-based, human; details: Homo sapiens, THP-1, THP-1 cells; Table 22; read-out: IC50 in TNFα generation assay
Method in brief: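 THP-1 cells differentiated to macrophage-like cells with 10 ng/ml IFN-γ for 2 days, preincubated with compound 30 min at room temperature, then cultured 7 h on plates coated with human IgG (10 μg/ml). Secreted TNFα measured by ELISA or AlphaLISA.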

SMILES | IC50 [1] [nM] | IC50 [2] [nM]
CCC[C@@H](Nc1nc(Nc2ccc3nc(OCCOC)ccc3c2)c(C(N)=O)cc1F)[C@H](C)N [Example 006-303, 6-(((2S,3R)-2-aminohexan-3-yl)amino)-5-fluoro-2-((2-(2-methoxyethoxy)quinolin-6-yl)amino)nicotinamide] | < 10 | 130 to 200
NCC(CCC(F)(F)F)Nc1nc(Nc2ccc3ncccc3c2)c(C(N)=O)cc1F (stereo not drawn) [Example 006-304, 6-((1-amino-5,5,5-trifluoropentan-2-yl)amino)-5-fluoro-2-((quinolin-6-yl)amino)nicotinamide] | < 10 | 130 to 200
CCC[C@@H](Nc1nc(Nc2ccc3nc(C)c(C)nc3c2)c(C(N)=O)cc1F)[C@H](C)N [Example 006-306, 6-(((2S,3R)-2-aminohexan-3-yl)amino)-2-((2,3-dimethylquinoxalin-6-yl)amino)-5-fluoronicotinamide] | < 10 | 65 to 130
CCC[C@@H](Nc1nc(Nc2cccc3ncccc23)c(C(N)=O)cc1F)[C@H](C)N [Example 006-307, 6-(((2S,3R)-2-aminohexan-3-yl)amino)-5-fluoro-2-(quinolin-5-ylamino)nicotinamide] | < 10 | 65 to 130
CCC[C@@H](Nc1nc(Nc2ccc3scnc3c2)c(C(N)=O)cc1F)[C@H](C)N [Example 006-308, 6-(((2S,3R)-2-aminohexan-3-yl)amino)-2-(benzo[d]thiazol-5-ylamino)-5-fluoronicotinamide] | < 10 | 65 to 130
CCC[C@@H](Nc1nc(Nc2ccnc(OCC)c2)c(C(N)=O)cc1F)[C@H](C)N [Example 006-309, 6-(((2S,3R)-2-aminohexan-3-yl)amino)-2-((2-ethoxypyridin-4-yl)amino)-5-fluoronicotinamide] | < 10 | 65 to 130
CCC[C@@H](Nc1nc(Nc2ccnc(OCCOC)c2)c(C(N)=O)cc1F)[C@H](C)N [Example 006-310, 6-(((2S,3R)-2-aminohexan-3-yl)amino)-5-fluoro-2-((2-(2-methoxyethoxy)pyridin-4-yl)amino)nicotinamide] | < 10 | 65 to 130
CCC[C@@H](Nc1nc(Nc2cncc(C)c2)c(C(N)=O)cc1F)[C@H](C)N [Example 006-312, 6-(((2S,3R)-2-aminohexan-3-yl)amino)-5-fluoro-2-((5-methylpyridin-3-yl)amino)nicotinamide] | < 10 | 65 to 130
CC[C@@H](Nc1nc(Nc2ccc3c(cnn3CCOC)c2)c(C(N)=O)cc1F)[C@H](C)N [Example 006-313, 6-(((2S,3R)-2-aminopentan-3-yl)amino)-5-fluoro-2-((1-(2-methoxyethyl)-1H-indazol-5-yl)amino)nicotinamide] | < 10 | 65 to 130
CCC[C@@H](Nc1nc(Nc2ccc3c(cnn3CCOC)c2)c(C(N)=O)cc1F)[C@H](C)N [Example 006-314, 6-(((2S,3R)-2-aminohexan-3-yl)amino)-5-fluoro-2-((1-(2-methoxyethyl)-1H-indazol-5-yl)amino)nicotinamide] | < 10 | < 65
CC[C@@H](Nc1nc(Nc2ccnc(-c3cc(OC)ccc3F)c2)c(C(N)=O)cc1F)[C@H](C)N [Example 006-315, 6-(((2S,3R)-2-aminopentan-3-yl)amino)-5-fluoro-2-((2-(2-fluoro-5-methoxyphenyl)pyridin-4-yl)amino)nicotinamide] | < 10 | < 65
CC(C)C[C@H](CN)Nc1nc(Nc2cncc(-c3ccccc3F)c2)c(C(N)=O)cc1F [Example 006-316, (R)-6-((1-amino-4-methylpentan-2-yl)amino)-5-fluoro-2-((5-(2-fluorophenyl)pyridin-3-yl)amino)nicotinamide] | 10 to 50 | 130 to 200
COc1cccc(-c2cncc(Nc3nc(N[C@@H](CN)CC(C)C)c(F)cc3C(N)=O)c2)c1 [Example 006-317, (R)-6-((1-amino-4-methylpentan-2-yl)amino)-5-fluoro-2-((5-(3-methoxyphenyl)pyridin-3-yl)amino)nicotinamide] | < 10 | 130 to 200
COc1cccc(-c2cncc(Nc3nc(N[C@@H](CN)CC(C)C)c(F)cc3C(N)=O)c2)c1F [Example 006-318, (R)-6-((1-amino-4-methylpentan-2-yl)amino)-5-fluoro-2-((5-(2-fluoro-3-methoxyphenyl)pyridin-3-yl)amino)nicotinamide] | 10 to 50 | 130 to 200
COc1ccc(F)c(-c2cc(Nc3nc(N[C@@H](CN)CC(C)C)c(F)cc3C(N)=O)ccn2)c1 [Example 006-321, (R)-6-((1-amino-4-methylpentan-2-yl)amino)-5-fluoro-2-((2-(2-fluoro-5-methoxyphenyl)pyridin-4-yl)amino)nicotinamide] | < 10 | 130 to 200
CCCC[C@H](CN)Nc1nc(Nc2ccc3c(cnn3CC)c2)c(C(N)=O)cc1F [Example 006-323, (R)-6-((1-aminohexan-2-yl)amino)-2-((1-ethyl-1H-indazol-5-yl)amino)-5-fluoronicotinamide] | < 10 | 65 to 130
CC(C)C[C@H](CN)Nc1nc(Nc2ccnc(-c3ccccc3F)c2)c(C(N)=O)cc1F [Example 006-324, (R)-6-((1-amino-4-methylpentan-2-yl)amino)-5-fluoro-2-((2-(2-fluorophenyl)pyridin-4-yl)amino)nicotinamide] | < 10 | 130 to 200
CC[C@@H](Nc1nc(Nc2ccnc(-c3ccccc3F)c2)c(C(N)=O)cc1F)[C@H](C)N [Example 006-329, 6-(((2S,3R)-2-aminopentan-3-yl)amino)-5-fluoro-2-((2-(2-fluorophenyl)pyridin-4-yl)amino)nicotinamide] | < 10 | < 65
CC[C@@H](Nc1nc(Nc2ccnc(-c3cccc(OC)c3)c2)c(C(N)=O)cc1F)[C@H](C)N [Example 006-330, 6-(((2S,3R)-2-aminopentan-3-yl)amino)-5-fluoro-2-((2-(3-methoxyphenyl)pyridin-4-yl)amino)nicotinamide] | < 10 | < 65
CC[C@@H](Nc1nc(Nc2ccnc(-c3ccc(OC)cc3)c2)c(C(N)=O)cc1F)[C@H](C)N [Example 006-331, 6-(((2S,3R)-2-aminopentan-3-yl)amino)-5-fluoro-2-((2-(4-methoxyphenyl)pyridin-4-yl)amino)nicotinamide] | < 10 | 65 to 130
CC[C@@H](Nc1nc(Nc2ccnc(-c3ccc(OC)cc3F)c2)c(C(N)=O)cc1F)[C@H](C)N [Example 006-332, 6-(((2S,3R)-2-aminopentan-3-yl)amino)-5-fluoro-2-((2-(2-fluoro-4-methoxyphenyl)pyridin-4-yl)amino)nicotinamide] | < 10 | < 65
CCC[C@@H](Nc1nc(Nc2ccnc(-c3ccccc3F)c2)c(C(N)=O)cc1F)[C@H](C)N [Example 006-333, 6-(((2S,3R)-2-aminohexan-3-yl)amino)-5-fluoro-2-((2-(2-fluorophenyl)pyridin-4-yl)amino)nicotinamide] | < 10 | 65 to 130
CCC[C@@H](Nc1nc(Nc2ccnc(-c3cccc(OC)c3)c2)c(C(N)=O)cc1F)[C@H](C)N [Example 006-334, 6-(((2S,3R)-2-aminohexan-3-yl)amino)-5-fluoro-2-((2-(3-methoxyphenyl)pyridin-4-yl)amino)nicotinamide] | < 10 | 65 to 130
CCC[C@@H](Nc1nc(Nc2ccnc(-c3ccc(OC)cc3)c2)c(C(N)=O)cc1F)[C@H](C)N [Example 006-335, 6-(((2S,3R)-2-aminohexan-3-yl)amino)-5-fluoro-2-((2-(4-methoxyphenyl)pyridin-4-yl)amino)nicotinamide] | < 10 | 130 to 200
CCC[C@@H](Nc1nc(Nc2ccnc(-c3ccc(OC)cc3F)c2)c(C(N)=O)cc1F)[C@H](C)N [Example 006-336, 6-(((2S,3R)-2-aminohexan-3-yl)amino)-5-fluoro-2-((2-(2-fluoro-4-methoxyphenyl)pyridin-4-yl)amino)nicotinamide] | < 10 | 130 to 200
CCCC[C@H](CN)Nc1nc(Nc2ccc3c(cnn3CCOC)c2)c(C(N)=O)cc1F [Example 006-338, (R)-6-((1-aminohexan-2-yl)amino)-5-fluoro-2-((1-(2-methoxyethyl)-1H-indazol-5-yl)amino)nicotinamide] | 10 to 50 | 65 to 130
COCCn1ncc2cc(Nc3nc(N[C@H](CC4CC4)[C@H](C)N)c(F)cc3C(N)=O)ccc21 [Example 006-343, 6-(((2R,3S)-3-amino-1-cyclopropylbutan-2-yl)amino)-5-fluoro-2-((1-(2-methoxyethyl)-1H-indazol-5-yl)amino)nicotinamide] | < 10 | 65 to 130
C[C@H](N)[C@@H](CC1CC1)Nc1nc(Nc2ccc3c(cnn3C)c2)c(C(N)=O)cc1F [Example 006-345, 6-(((2R,3S)-3-amino-1-cyclopropylbutan-2-yl)amino)-5-fluoro-2-((1-methyl-1H-indazol-5-yl)amino)nicotinamide] | < 10 | 65 to 130
COc1ccc2cc(Nc3nc(N[C@H](CC4CC4)[C@H](C)N)c(F)cc3C(N)=O)cnc2c1 [Example 006-346, 6-(((2R,3S)-3-amino-1-cyclopropylbutan-2-yl)amino)-5-fluoro-2-((7-methoxyquinolin-3-yl)amino)nicotinamide] | < 10 | 130 to 200
C[C@H](N)[C@@H](CC1CC1)Nc1nc(Nc2ccc3scnc3c2)c(C(N)=O)cc1F [Example 006-348, 6-(((2R,3S)-3-amino-1-cyclopropylbutan-2-yl)amino)-2-(benzo[d]thiazol-5-ylamino)-5-fluoronicotinamide] | 10 to 50 | 65 to 130
